Converted amounts (≈) assume the structure as drawn. Where two headings read alike, the source gives them in different places.
System: Alicyclobacillus acidoterrestris (JCM catalogue number 21547, IAM Culture Collection no. 15086)
Assay: MIC against Alicyclobacillus acidoterrestris in apple juice (OD600 and CFU counting)
Type: cell-based
Details: 37° C.; for MIC: Alicyclobacillus acidoterrestris, 100% apple juice
Method: The fractions collected in Example 4, as well as Fraction 1 and nisin, a preservative presently in common use in the industry, were tested for activity by incubating for the times indicated in the table below with Alicyclobacillus acidoterrestris (JCM catalogue number 21547, IAM Culture Collection no. 15086) in apple juice. The minimum inhibitory concentration (MIC) was determined by optical density measurements at 600 nm, and by counting colony forming units (CFU) as follows: after four days of incubation at 37° C., juice samples were serially diluted in 10-fold increments (10-fold, 100-fold, 1000-fold, etc.) and plated on Potato Dextrose Agar (PDA). Plates were incubated at 45° C. for at least 48 hours, and colonies were counted to determine CFU/ml.

[1] = 48 h, 2 days of incubation, read-out: MIC (μg/ml) in 100% apple juice 2 days of incubation
[2] = 72 h, 3 days of incubation, read-out: MIC (μg/ml) in 100% apple juice 3 days of incubation
[3] = 120 h, 5 days of incubation, read-out: MIC (μg/ml) in 100% apple juice 5 days of incubation
[4] = 168 h, 7 days of incubation, read-out: MIC (μg/ml) in 100% apple juice 7 days of incubation

MIC [1]	MIC [2]	MIC [3]	MIC [4]	Structure (SMILES)	MIC (μg/ml) in 100% apple juice 2 days of incubation (2 days of incubation)	MIC (μg/ml) in 100% apple juice 3 days of incubation (3 days of incubation)	MIC (μg/ml) in 100% apple juice 5 days of incubation (5 days of incubation)	MIC (μg/ml) in 100% apple juice 7 days of incubation (7 days of incubation)
1.25 µg/mL (≈ 4.11 µM)	1.25 µg/mL (≈ 4.11 µM)	1.25 µg/mL (≈ 4.11 µM)	1.25 µg/mL (≈ 4.11 µM)	CC1=CCC[C@@H]2[C@@](C)(CC/C(C)=C/C(=O)O)[C@H](C)CC[C@@]12C (single isomer, unassigned) [Sample 6, Kolavenic acid]	–	–	–	–
1.25 µg/mL (≈ 4.11 µM)	1.25 µg/mL (≈ 4.11 µM)	1.25 µg/mL (≈ 4.11 µM)	1.25 µg/mL (≈ 4.11 µM)	C=C1CC[C@@H]2C(C)(C)CCC[C@@]2(C)[C@@H]1CC/C(C)=C/C(=O)O (single isomer, unassigned) [Sample 7, copalic acid]	–	–	–	–
–	–	–	–	CC(=O)OC1CC2(C)C(C(=O)O)=CCCC2C(C)(CCc2ccoc2)C1C (stereo not drawn) [Sample 3, 7-α-acetoxyhardwickiic acid]	2.5 µg/mL	5 µg/mL	5 µg/mL	5 µg/mL

— patent US11918013B2, “Composition for inactivation of gram-positive bacteria and bacterial spores and methods of making and using same” (RESORCIX LTD., priority 2018, dated 2024)
